Data from US20230085307A1, “PYRIDAZINONE COMPOUND AND HERBICIDE” (NISSAN CHEMICAL CORPORATION, priority 2019, published 2023).

How the values were obtained:
barnyard grass [1] = experiment: Test Example 3: herbicidal effect by foliage application, Wagner pot (Table 18, symbol H); format: in vivo, barnyard grass (Echinochloa crus-galli)
Outline: (§1)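 Plants were sown in alluvial soil held under 0.1–0.5 cm standing water and grown 14 days in a greenhouse at 25–30 °C. An emulsifiable formulation, water-diluted to the set dose, was then sprayed onto the foliage, and effects were scored three weeks later using previously defined criteria.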

Chinese sprangletop = experiment: Test Example 3: herbicidal effect by foliage application, Wagner pot (Table 18, symbol D); format: in vivo, chinese sprangletop (Leptochloa chinensis)
Outline: as §1

rice flat sedge = experiment: Test Example 3: herbicidal effect by foliage application, Wagner pot (Table 18, symbol E); format: in vivo, rice flat sedge (Cyperus iria)
Outline: as §1

southern crabgrass [2] = experiment: Test Example 4: herbicidal effect by soil treatment (Table 19, symbol F); format: in vivo, southern crabgrass (Digitaria ciliaris)
Outline: (§2)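 Step 1: sow seeds in sterilized diluvial soil, cover ~1.5 cm. Step 2: spray diluted emulsion onto soil surface at predetermined rate. Step 3: greenhouse, 25–30° C, three weeks. Step 4: grade effect on each plant by earlier criteria.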

green foxtail [3] = experiment: Test Example 4: herbicidal effect by soil treatment (Table 19, symbol G); format: in vivo, green foxtail (Setaria viridis)
Outline: as §2

barnyard grass [4] = experiment: Test Example 4: herbicidal effect by soil treatment (Table 19, symbol H); format: in vivo, barnyard grass (Echinochloa crus-galli)
Outline: as §2

wild oat [5] = experiment: Test Example 4: herbicidal effect by soil treatment (Table 19, symbol I); format: in vivo, wild oat (Avena fatua)
Outline: as §2

blackgrass [6] = experiment: Test Example 4: herbicidal effect by soil treatment (Table 19, symbol J); format: in vivo, blackgrass (Alopecurus myosuroides)
Outline: as §2

Italian ryegrass [7] = experiment: Test Example 4: herbicidal effect by soil treatment (Table 19, symbol K); format: in vivo, Italian ryegrass (Lolium multiflorum)
Outline: as §2

velvetleaf [8] = experiment: Test Example 4: herbicidal effect by soil treatment (Table 19, symbol M); format: in vivo, velvetleaf (Abutilon theophrasti)
Outline: as §2

redroot pigweed [9] = experiment: Test Example 4: herbicidal effect by soil treatment (Table 19, symbol N); format: in vivo, redroot pigweed (Amaranthus retroflexus)
Outline: as §2

lambsquarters [10] = experiment: Test Example 4: herbicidal effect by soil treatment (Table 19, symbol O); format: in vivo, lambsquarters (Chenopodium album)
Outline: as §2

chickweed [11] = experiment: Test Example 4: herbicidal effect by soil treatment (Table 19, symbol P); format: in vivo, common chickweed (Stellaria media)
Outline: as §2

persian speedwell [12] = experiment: Test Example 4: herbicidal effect by soil treatment (Table 19, symbol R); format: in vivo, Persian speedwell (Veronica persica)
Source text: [Test Example 4] Herbicidal Effect Test by Soil Treatment
Sterilized diluvial soil was placed in a plastic box having a length of 21 cm, a width of 13 cm, and a depth of 7 cm. The seeds of each of southern crabgrass, green foxtail, barnyard grass, wild oat, blackgrass, Italian ryegrass, windgrass, velvetleaf, redroot pigweed, lambsquarters, chickweed, false cleavers, persian speedwell, corn, soybean, rice, wheat, beet, and rapeseed were sowed in a spot-like manner and covered with the soil having a thickness of about 1.5 cm. Subsequently, the emulsion agent of the compound of the present invention prepared according to Formulation Example 2 was diluted with water so as to achieve a predetermined herbicide amount, and the diluted emulsion agent was uniformly applied to the surface of the soil with a small-sized spray. The plastic box was placed in a greenhouse at 25° C. to 30° C. for growth of the plants. Three weeks after the herbicide application, the effect of the herbicide on each plant was evaluated according to the criteria of Test Example 1.

southern crabgrass [13] = experiment: Test Example 5: herbicidal effect by foliage application, plastic box (Table 20, symbol F); format: in vivo, southern crabgrass (Digitaria ciliaris)
Outline: (§3)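 Foliar spray test: emulsion formulation diluted in water to a set application rate, sprayed onto 14-day-old plants raised in diluvial soil at 25° C to 30° C under glass. Both herbicidal effect and crop effect rated visually three weeks later.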

green foxtail [14] = experiment: Test Example 5: herbicidal effect by foliage application, plastic box (Table 20, symbol G); format: in vivo, green foxtail (Setaria viridis)
Outline: as §3

barnyard grass [15] = experiment: Test Example 5: herbicidal effect by foliage application, plastic box (Table 20, symbol H); format: in vivo, barnyard grass (Echinochloa crus-galli)
Outline: as §3

wild oat [16] = experiment: Test Example 5: herbicidal effect by foliage application, plastic box (Table 20, symbol I); format: in vivo, wild oat (Avena fatua)
Outline: as §3

blackgrass [17] = experiment: Test Example 5: herbicidal effect by foliage application, plastic box (Table 20, symbol J); format: in vivo, blackgrass (Alopecurus myosuroides)
Outline: as §3

Italian ryegrass [18] = experiment: Test Example 5: herbicidal effect by foliage application, plastic box (Table 20, symbol K); format: in vivo, Italian ryegrass (Lolium multiflorum)
Outline: as §3

windgrass = experiment: Test Example 5: herbicidal effect by foliage application, plastic box (Table 20, symbol L); format: in vivo, windgrass (Apera spica-venti)
Outline: as §3

velvetleaf [19] = experiment: Test Example 5: herbicidal effect by foliage application, plastic box (Table 20, symbol M); format: in vivo, velvetleaf (Abutilon theophrasti)
Outline: as §3

redroot pigweed [20] = experiment: Test Example 5: herbicidal effect by foliage application, plastic box (Table 20, symbol N); format: in vivo, redroot pigweed (Amaranthus retroflexus)
Outline: as §3

lambsquarters [21] = experiment: Test Example 5: herbicidal effect by foliage application, plastic box (Table 20, symbol O); format: in vivo, lambsquarters (Chenopodium album)
Outline: as §3

chickweed [22] = experiment: Test Example 5: herbicidal effect by foliage application, plastic box (Table 20, symbol P); format: in vivo, common chickweed (Stellaria media)
Outline: as §3

persian speedwell [23] = experiment: Test Example 5: herbicidal effect by foliage application, plastic box (Table 20, symbol R); format: in vivo, Persian speedwell (Veronica persica)
Outline: as §3

[24] = foliage application, AAH 320 g/ha, three weeks after application
[25] = amount of applied herbicide 280 g/ha
[26] = amount of applied herbicide 320 g/ha
[27] = 320 g/ha, foliage application after 14-day growth, evaluated three weeks after application

COc1ccc(Cl)cc1-c1sc2ccccc2c1-c1c(O)c(OC)nn(C)c1=O [1-178]
herbicidal effect on H (barnyard grass), rating 0-5 (barnyard grass [1]; 320 g/ha): 4 (Herbicidal rate of 70% or more and less than 90%)
herbicidal effect on D (Chinese sprangletop), rating 0-5 (Chinese sprangletop; 320 g/ha): 0 (Herbicidal rate of 5% or less (almost no effect))
herbicidal effect on E (rice flat sedge), rating 0-5 (rice flat sedge; 320 g/ha): 5 (Herbicidal rate of 90% or more (almost completely withered))
F: southern crabgrass, herbicidal effect rating (southern crabgrass [2]; AAH 320 g/ha): 0 (Herbicidal rate of 5% or less (almost no effect))
G: green foxtail, herbicidal effect rating (green foxtail [3]; AAH 320 g/ha): 0 (Herbicidal rate of 5% or less (almost no effect))
H: barnyard grass, herbicidal effect rating (barnyard grass [4]; AAH 320 g/ha): 0 (Herbicidal rate of 5% or less (almost no effect))
I: wild oat, herbicidal effect rating (wild oat [5]; AAH 320 g/ha): 0 (Herbicidal rate of 5% or less (almost no effect))
J: blackgrass, herbicidal effect rating (blackgrass [6]; AAH 320 g/ha): 1 (Herbicidal rate of 5% or more and less than 20%)
K: Italian ryegrass, herbicidal effect rating (Italian ryegrass [7]; AAH 320 g/ha): 0 (Herbicidal rate of 5% or less (almost no effect))
M: velvetleaf, herbicidal effect rating (velvetleaf [8]; AAH 320 g/ha): 0 (Herbicidal rate of 5% or less (almost no effect))
N: redroot pigweed, herbicidal effect rating (redroot pigweed [9]; AAH 320 g/ha): 4 (Herbicidal rate of 70% or more and less than 90%)
O: lambsquarters, herbicidal effect rating (lambsquarters [10]; AAH 320 g/ha): 0 (Herbicidal rate of 5% or less (almost no effect))
P: chickweed, herbicidal effect rating (chickweed [11]; AAH 320 g/ha): 4 (Herbicidal rate of 70% or more and less than 90%)
R: persian speedwell, herbicidal effect rating (persian speedwell [12]; AAH 320 g/ha): 4 (Herbicidal rate of 70% or more and less than 90%)
F: southern crabgrass, herbicidal effect (southern crabgrass [13]; [24]): 3 (Herbicidal rate of 40% or more and less than 70%)
G: green foxtail, herbicidal effect (green foxtail [14]; [24]): 4 (Herbicidal rate of 70% or more and less than 90%)
H: barnyard grass, herbicidal effect (barnyard grass [15]; [24]): 4 (Herbicidal rate of 70% or more and less than 90%)
I: wild oat, herbicidal effect (wild oat [16]; [24]): 4 (Herbicidal rate of 70% or more and less than 90%)
J: blackgrass, herbicidal effect (blackgrass [17]; [24]): 1 (Herbicidal rate of 5% or more and less than 20%)
K: Italian ryegrass, herbicidal effect (Italian ryegrass [18]; [24]): 0 (Herbicidal rate of 5% or less (almost no effect))
L: windgrass, herbicidal effect (windgrass; [24]): 4 (Herbicidal rate of 70% or more and less than 90%)
M: velvetleaf, herbicidal effect (velvetleaf [19]; [24]): 3 (Herbicidal rate of 40% or more and less than 70%)
N: redroot pigweed, herbicidal effect (redroot pigweed [20]; [24]): 5 (Herbicidal rate of 90% or more (almost completely withered))
O: lambsquarters, herbicidal effect (lambsquarters [21]; [24]): 4 (Herbicidal rate of 70% or more and less than 90%)
P: chickweed, herbicidal effect (chickweed [22]; [24]): 5 (Herbicidal rate of 90% or more (almost completely withered))
R: persian speedwell, herbicidal effect (persian speedwell [23]; [24]): 4 (Herbicidal rate of 70% or more and less than 90%)

COc1cccc(-c2sc3ccc(F)cc3c2-c2c(O)c(C)nn(C)c2=O)n1 [2-382]
herbicidal effect on H: barnyard grass (barnyard grass [1]; [25]): 0 (Herbicidal rate of 5% or less (almost no effect))
herbicidal effect on D: Chinese sprangletop (Chinese sprangletop; [25]): 0 (Herbicidal rate of 5% or less (almost no effect))
herbicidal effect on E: rice flat sedge (rice flat sedge; [25]): 3 (Herbicidal rate of 40% or more and less than 70%)
herbicidal effect, F: southern crabgrass (southern crabgrass [2]; [25]): 0 (Herbicidal rate of 5% or less (almost no effect))
herbicidal effect, G: green foxtail (green foxtail [3]; [25]): 0 (Herbicidal rate of 5% or less (almost no effect))
herbicidal effect, H: barnyard grass (barnyard grass [4]; [25]): 1 (Herbicidal rate of 5% or more and less than 20%)
herbicidal effect, I: wild oat (wild oat [5]; [25]): 0 (Herbicidal rate of 5% or less (almost no effect))
herbicidal effect, J: blackgrass (blackgrass [6]; [25]): 0 (Herbicidal rate of 5% or less (almost no effect))
herbicidal effect, K: Italian ryegrass (Italian ryegrass [7]; [25]): 1 (Herbicidal rate of 5% or more and less than 20%)
herbicidal effect, M: velvetleaf (velvetleaf [8]; [25]): 1 (Herbicidal rate of 5% or more and less than 20%)
herbicidal effect, N: redroot pigweed (redroot pigweed [9]; [25]): 4 (Herbicidal rate of 70% or more and less than 90%)
herbicidal effect, O: lambsquarters (lambsquarters [10]; [25]): 4 (Herbicidal rate of 70% or more and less than 90%)
herbicidal effect, P: chickweed (chickweed [11]; [25]): 4 (Herbicidal rate of 70% or more and less than 90%)
herbicidal effect, R: persian speedwell (persian speedwell [12]; [25]): 4 (Herbicidal rate of 70% or more and less than 90%)

Cc1nn(C)c(=O)c(-c2c(-c3ccc(C(F)(F)F)cc3)sc3c(F)cccc23)c1O [4-044]
herbicidal effect on barnyard grass (H) (barnyard grass [1]; 320 g/ha): 5 (Herbicidal rate of 90% or more (almost completely withered))
herbicidal effect on Chinese sprangletop (D) (Chinese sprangletop; 320 g/ha): 5 (Herbicidal rate of 90% or more (almost completely withered))
herbicidal effect on rice flat sedge (E) (rice flat sedge; 320 g/ha): 5 (Herbicidal rate of 90% or more (almost completely withered))
Herbicidal effect by soil treatment, F: southern crabgrass (southern crabgrass [2]; [26]): 0 (Herbicidal rate of 5% or less (almost no effect))
Herbicidal effect by soil treatment, G: green foxtail (green foxtail [3]; [26]): 0 (Herbicidal rate of 5% or less (almost no effect))
Herbicidal effect by soil treatment, H: barnyard grass (barnyard grass [4]; [26]): 0 (Herbicidal rate of 5% or less (almost no effect))
Herbicidal effect by soil treatment, I: wild oat (wild oat [5]; [26]): 0 (Herbicidal rate of 5% or less (almost no effect))
Herbicidal effect by soil treatment, J: blackgrass (blackgrass [6]; [26]): 0 (Herbicidal rate of 5% or less (almost no effect))
Herbicidal effect by soil treatment, K: Italian ryegrass (Italian ryegrass [7]; [26]): 0 (Herbicidal rate of 5% or less (almost no effect))
Herbicidal effect by soil treatment, M: velvetleaf (velvetleaf [8]; [26]): 0 (Herbicidal rate of 5% or less (almost no effect))
Herbicidal effect by soil treatment, N: redroot pigweed (redroot pigweed [9]; [26]): 0 (Herbicidal rate of 5% or less (almost no effect))
Herbicidal effect by soil treatment, O: lambsquarters (lambsquarters [10]; [26]): 0 (Herbicidal rate of 5% or less (almost no effect))
Herbicidal effect by soil treatment, P: chickweed (chickweed [11]; [26]): 1 (Herbicidal rate of 5% or more and less than 20%)
Herbicidal effect by soil treatment, R: persian speedwell (persian speedwell [12]; [26]): 3 (Herbicidal rate of 40% or more and less than 70%)
herbicidal effect on F: southern crabgrass (evaluation grade 0-5) (southern crabgrass [13]; [27]): 0 (Herbicidal rate of 5% or less (almost no effect))
herbicidal effect on G: green foxtail (evaluation grade 0-5) (green foxtail [14]; [27]): 1 (Herbicidal rate of 5% or more and less than 20%)
herbicidal effect on H: barnyard grass (evaluation grade 0-5) (barnyard grass [15]; [27]): 2 (Herbicidal rate of 20% or more and less than 40%)
herbicidal effect on I: wild oat (evaluation grade 0-5) (wild oat [16]; [27]): 0 (Herbicidal rate of 5% or less (almost no effect))
herbicidal effect on J: blackgrass (evaluation grade 0-5) (blackgrass [17]; [27]): 0 (Herbicidal rate of 5% or less (almost no effect))
herbicidal effect on K: Italian ryegrass (evaluation grade 0-5) (Italian ryegrass [18]; [27]): 4 (Herbicidal rate of 70% or more and less than 90%)
herbicidal effect on L: windgrass (evaluation grade 0-5) (windgrass; [27]): 5 (Herbicidal rate of 90% or more (almost completely withered))
herbicidal effect on M: velvetleaf (evaluation grade 0-5) (velvetleaf [19]; [27]): 3 (Herbicidal rate of 40% or more and less than 70%)
herbicidal effect on N: redroot pigweed (evaluation grade 0-5) (redroot pigweed [20]; [27]): 4 (Herbicidal rate of 70% or more and less than 90%)
herbicidal effect on O: lambsquarters (evaluation grade 0-5) (lambsquarters [21]; [27]): 3 (Herbicidal rate of 40% or more and less than 70%)
herbicidal effect on P: chickweed (evaluation grade 0-5) (chickweed [22]; [27]): 5 (Herbicidal rate of 90% or more (almost completely withered))
herbicidal effect on R: persian speedwell (evaluation grade 0-5) (persian speedwell [23]; [27]): 5 (Herbicidal rate of 90% or more (almost completely withered))
